# According to patent publication US12234245B2, “Sulfonimidamide compounds as inhibitors of interleukin-1 activity” (Genentech, Inc., priority 2018, dated 2025):
# Biological target: T1, NLRP3 inflammasome (Homo sapiens, UniProt Q96P20)
# Assay: NLRP3 inflammasome activation assay in PBMCs, IL-1β release (ELISA / HTRF)
# Type: cell-based
# Design: were freshly isolated from human peripheral blood from healthy donors; StemCells Technologies; host or cells: primary human PBMCs, LPS-primed, nigericin-stimulated
# Conditions: LPS primed, 10 uM nigericin, read-out: PBMC IL-1 β IC50
# Protocol: Some of the following assays were used to determine the inhibitory activity of the compounds on the NLRP3 inflammasome using a common inflammasome activation stimuli—nigericin.
# Human peripheral blood mononuclear cells (PBMCs), consisting of lymphocytes (T, B and NK cells), monocytes and dendritic cells, were freshly isolated from human peripheral blood from healthy donors. Cells were obtained through an IRB approved donor program by iXCells Biotechnologies where all the donors were tested for bacterial and viral infections. Cells were purified from peripheral blood using ficoll gradient centrifugation.
# Fresh or cryopreserved PMBCs were seeded in V-bottom 96-well plate at 0.5-1×10^5 cells per well and incubated overnight at 37° C. with 5% CO2 in RPMI 1640 medium with GlutaMAX supplement, 4.5 g/L D-glucose, 10% Fetal Bovine Serum (FBS), […] Sodium Pyruvate, 1% Penicillin/Streptomycin, 10 mM HEPES and 0.05 mM of β-mercaptoethanol. Freshly isolated or cryopreserved KCs cells were seeded in flat-bottom 96-well plates at 0.6-1.5×10^5 cells/well and incubated overnight at 37° C. 5% CO2 in RPMI 1640 Medium with GlutaMAX supplement, FBS, 1% Penicillin/Streptomycin and 10 mM HEPES. The following day, the cells were primed with 100 ng/mL of lipopolysaccharides (LPS; Sigma Aldrich) in FBS-free RPMI 1640 for 3 h. After the priming step, the media was removed and PBMCs were pre-incubated with serial concentrations of test compounds (0.00017-10 uM) or vehicle (DMSO) for 30 min in FBS-free media prior to addition of the NLRP3 activator. Cells were then stimulated with 10 uM Nigericin (Sigma Aldrich; InvivoGen) for 1.5 h. Plates were centrifuged at 1,500 rpm for 3 minutes to pellet cells and supernatant was transferred into new plates for subsequent experiments.
# For ELISA assays cells were seeded into 96-well plates. Post study, supernatants were removed and the levels of mature IL-1β, IL18 and TNFα (Quantikine ELISA, R&D systems) were measured in cell conditioned media by ELISA according to manufacturer's instructions.
# Human frozen PBMCs were purchased from StemCells Technologies. Cells were rapidly thawed in 37° C. water bath and resuspended in fresh assay media consisting of RPMI 1640 Medium containing 1% sodium pyruvate, 10 mM HEPES, 2.5 g/L glucose and 55 μM 2-Mercaptoethanol. Cell density was adjusted to 8.1×10^5 cells/mL. Cells were primed by adding lipopolysaccharide (Invivogen Ultrapure lipopolysaccharide from E. coli, tlrl-3pelps) at a final concentration of 100 ng/mL in cell suspension. 37 μL of cell suspension with LPS was seeded per well of a 384 well plate and incubated for 3 hours at 37° C. and 5% CO2. After priming, PBMCs were preincubated with serially diluted test compounds with starting concentration of 40 μM followed by 2-fold dilution for a 20-point curve or vehicle (DMSO) for 30 min in assay media at 37° C. and 5% CO2. Cells were then stimulated with 10 μM nigericin (Invivogen, tlrl-nig-5) for 90 min at 37° C. and 5% CO2 to activate NLRP3 dependent inflammasome pathway and IL-1β release in cell culture supernatant. Cells were centrifuged at 1200 RPM for 1 min and 40 μL of supernatant was transferred into fresh plates and stored at −80° C. until IL-1β analysis.
# 16 μL of supernatant was added to white 384 well HTRF plates, followed by addition of 4 μL of HTRF cocktail in each well. Plates were quickly centrifuged, sealed and incubated overnight at room temperature. Next day, HTRF signal was read on a Pherastar and ratio of 665/620 was calculated based on manufacturer's protocol to obtain concentration of IL-1β in cell culture supernatant.
# T1 sequence (Q96P20 whole entry): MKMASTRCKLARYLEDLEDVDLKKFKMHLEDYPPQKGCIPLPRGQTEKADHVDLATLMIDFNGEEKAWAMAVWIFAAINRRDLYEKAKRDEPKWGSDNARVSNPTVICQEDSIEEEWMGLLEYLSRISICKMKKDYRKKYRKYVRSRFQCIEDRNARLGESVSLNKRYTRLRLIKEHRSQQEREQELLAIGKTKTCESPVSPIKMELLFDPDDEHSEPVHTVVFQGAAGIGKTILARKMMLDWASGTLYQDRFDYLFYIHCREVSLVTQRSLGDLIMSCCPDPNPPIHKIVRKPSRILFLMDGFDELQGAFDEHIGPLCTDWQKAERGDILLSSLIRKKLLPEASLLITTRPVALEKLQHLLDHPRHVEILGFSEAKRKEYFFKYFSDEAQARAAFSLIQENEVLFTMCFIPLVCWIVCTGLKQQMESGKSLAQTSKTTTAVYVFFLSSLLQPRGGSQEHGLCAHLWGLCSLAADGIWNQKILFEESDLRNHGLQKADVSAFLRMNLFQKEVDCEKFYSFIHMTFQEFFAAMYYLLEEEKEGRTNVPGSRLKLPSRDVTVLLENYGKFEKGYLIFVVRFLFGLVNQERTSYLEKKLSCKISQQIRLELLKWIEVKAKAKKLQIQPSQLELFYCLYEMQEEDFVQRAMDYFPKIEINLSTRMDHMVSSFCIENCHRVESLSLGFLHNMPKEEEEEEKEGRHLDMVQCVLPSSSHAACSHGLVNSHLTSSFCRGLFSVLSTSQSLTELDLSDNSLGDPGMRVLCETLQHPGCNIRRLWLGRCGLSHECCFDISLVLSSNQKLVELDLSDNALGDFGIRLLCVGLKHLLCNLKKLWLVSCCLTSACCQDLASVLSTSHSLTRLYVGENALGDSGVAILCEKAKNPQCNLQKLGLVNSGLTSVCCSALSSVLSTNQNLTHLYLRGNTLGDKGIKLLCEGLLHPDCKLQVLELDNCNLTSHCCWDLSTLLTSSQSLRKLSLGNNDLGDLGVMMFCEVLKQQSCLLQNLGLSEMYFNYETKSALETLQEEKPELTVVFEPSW
row,IC50 [nM],SMILES
1,> 10000,Cn1ccc(S(=O)(=NC(=O)Nc2c3c(cc4c2CCC4)CCC3)NCc2ccccc2)n1 (stereo not shown) [drawing 659]
2,100 to 1000,CN[C@@H]1COc2c(S(=N)(=O)NC(=O)Nc3c4c(cc5c3CCC5)CCC4)cnn2C1 (stereo partly shown) [drawing 673]

# Same assay, conditions: LPS primed, 10 μM nigericin, read-out: PBMC IL-1β IC50
row,IC50 [nM],SMILES
1,3640,"NS(=O)(=NC(=O)Nc1c2c(cc3c1CCC3)CCC2)c1cnn2c1CCCC2 (racemic) [Example 60, N′-((1,2,3,5,6,7-hexahydro-s-indacen-4-yl)carbamoyl)-4,5,6,7-tetrahydropyrazolo[1,5-a]pyridine-3-sulfonimidamide]"
2,> 10000,"COc1cc(C(C)C)c(NC(=O)N=S(N)(=O)c2cnn3c2OCC(N2CC(OC)C2)C3)c(C(C)C)n1 (single isomer, unassigned) [Example 48]"
3,1670,"CNCCO[C@@H]1COc2c(S(N)(=O)=NC(=O)Nc3c4c(cc5c3CCC5)CCC4)cnn2C1 (single isomer, unassigned) [Example 57]"
4,2230,"CC(=O)NS(=O)(=NC(=O)Nc1c2c(c(F)c3c1CCC3)CCC2)c1cnn2c1OCCC2 (single isomer, unassigned) [Example 95]"
5,> 10000,"Cn1ccc(S(=O)(=NC(=O)Nc2c3c(cc4c2CCC4)CCC3)NCc2ccccc2)n1 (stereo not shown) [Example 11, N′-benzyl-N-((1,2,3,5,6,7-hexahydro-s-indacen-4-yl)carbamoyl)-1-methyl-1H-pyrazole-3-sulfonimidamide]"

# Biological target: T1, NLRP3 inflammasome
# Assay: THP-1 ASC-GFP speck assay
# Type: cell-based
# Design: host or cells: THP-1 ASC-GFP cells, PMA-differentiated, LPS-primed, nigericin-stimulated
# Conditions: THP-1 ASC-GFP cells, PMA differentiated, LPS primed, 10 μM nigericin; read-out: THP1 ASC Speck IC50
# Protocol: THP-1 ASC-GFP cell line was purchased from Invivogen, San Diego, for inflammasome activation assay. THP-1 ASC-GFP cells stably express a 37.6 kDa ASC::GFP fusion protein that enables monitoring of spec formation by microscopy after activation of NLRP3 dependent inflammasome pathway. Cells were maintained at a density of 600,000 cells/mL in growth media consisting of RPMI 1640, 2 mM L-glutamine, 25 mM HEPES and 10% heat inactivated fetal bovine serum at 37° C. and 5% CO2. Cells were passaged every 3-4 days and used for assays for up to 20 passages.
# THP-1 ASC-GFP cells were collected by centrifuging cells at 800 RPM for 5 minutes. Cell culture supernatant was removed and cells were re-suspended in fresh media at density of 1×10^6 cells/mL in assay media consisting of RPMI 1640, 2 mM L-glutamine, 25 mM HEPES and 10% heat inactivated fetal bovine serum. Phorbol 12-myristate 13-acetate (PMA) (Invivogen, tlrl-pma) was added to the cell suspension at a final concentration of 500 ng/ml and mixed thoroughly. 40,000 cells were added per well of a 384 well plate and differentiated into macrophages overnight at 37° C. and 5% CO2. Cells were primed with 1 μg/mL of lipopolysaccharide (Invivogen Ultrapure lipopolysaccharide from E. coli, tlrl-3pelps) in assay media for 3 hours at 37° C. and 5% CO2. After priming, media was removed and THP-1 ASC-GFP cells were preincubated with serially diluted test compounds with starting concentration of 40 μM followed by 2-fold dilution for a 20-point curve or vehicle (DMSO) for 30 min in assay media at 37° C. and 5% CO2. Cells were then stimulated with 10 μM nigericin (Invivogen, tlrl-nig-5) for 90 min at 37° C. and 5% CO2 to activate NLRP3 dependent inflammasome pathway and spec formation. After stimulation, cells were fixed with 4.8% paraformaldehyde (Electron Microscopy Sciences #15710-S) and incubated at room temperature for 15 min. Cells were then washed 3-times with 100 μL of phosphate buffered saline and permeabilized in the presence of premeablization/block buffer for 20 min at room temperature. Cells were then washed 3-times with 100 μL phosphate buffered saline and incubated for 1 hr at room temperature in the presence of hoechst. After staining with Hoechst, cells were washed 3-times with 100 μL phosphate buffered saline and imaged for ASC spec formation.
# THP-1 ASC-GFP cells were imaged in 488 and Hoechst channels. Hoechst channel was used for cell count and 488 channel was used to identify number of GFP ASC specks in imaged fields. Percentage of cells with a spec was calculated by dividing the number of GFP positive spots by total number of cells.
row,IC50 [nM],SMILES
1,650,"COC1COc2c(S(N)(=O)=NC(=O)Nc3c4c(cc5c3C(C)CC5)CCC4)cnn2C1 (single isomer, unassigned) [Example 149]"
2,24,"COC1COc2c(S(N)(=O)=NC(=O)Nc3c4c(cc5c3C(C)CC5)CCC4)cnn2C1 (single isomer, unassigned) [Example 150]"
3,> 20000,"COc1cc(-c2ccc(NC(=O)N=S(N)(=O)c3cnn4c3OCC(OC)C4)c3c2CCC3)ccn1 (single isomer, unassigned) [Example 151]"
4,4100,"COc1cc(-c2ccc(NC(=O)N=S(N)(=O)c3cnn4c3OCC(OC)C4)c3c2CCC3)ccn1 (single isomer, unassigned) [Example 152]"
5,1400,"CC1(C)COc2c(S(N)(=O)=NC(=O)Nc3c4c(cc5c3CC(F)C5)CCC4)cnn2C1 (single isomer, unassigned) [Example 153]"
6,1800,"CC1(C)COc2c(S(N)(=O)=NC(=O)Nc3c4c(cc5c3CC(F)C5)CCC4)cnn2C1 (single isomer, unassigned) [Example 154]"
7,8,"CC1(C)COc2c(S(N)(=O)=NC(=O)Nc3c4c(cc5c3CC(F)C5)CCC4)cnn2C1 (single isomer, unassigned) [Example 155]"
8,13,"CC1(C)COc2c(S(N)(=O)=NC(=O)Nc3c4c(cc5c3CC(F)C5)CCC4)cnn2C1 (single isomer, unassigned) [Example 156]"
9,710,"COc1cc(-c2ccc3c(c2NC(=O)N=S(N)(=O)c2cnn4c2OCCC4)CCO3)ccn1 (single isomer, unassigned) [Example 157]"
10,25,"COc1cc(-c2ccc3c(c2NC(=O)N=S(N)(=O)c2cnn4c2OCCC4)CCO3)ccn1 (single isomer, unassigned) [Example 158]"

# More lines, now with the values behind:
row,SMILES,IC50 [nM]
1,"CC1(C)Cn2ncc(S(N)(=O)=NC(=O)Nc3c4c(cc5c3CCC5)CCC4)c2O1 (single isomer, unassigned) [Example 140]",560
2,"NS(=O)(=NC(=O)Nc1c2c(cc3c1CC3)CCC2)c1cnn2c1OCCC2 (single isomer, unassigned) [Example 141]",1600
3,"NS(=O)(=NC(=O)Nc1c2c(cc3c1CC3)CCC2)c1cnn2c1OCCC2 (single isomer, unassigned) [Example 142]",84
4,"CC1CCc2cc3c(c(NC(=O)N=S(N)(=O)c4cnn5c4OCC5)c21)CCC3 (single isomer, unassigned) [Example 143]",1200
5,"CC1CCc2cc3c(c(NC(=O)N=S(N)(=O)c4cnn5c4OCC5)c21)CCC3 (single isomer, unassigned) [Example 144]",56
6,"CC1CCc2cc3c(c(NC(=O)N=S(N)(=O)c4cnn5c4OCC5)c21)CCC3 (single isomer, unassigned) [Example 145]",3800
7,"CC1CCc2cc3c(c(NC(=O)N=S(N)(=O)c4cnn5c4OCC5)c21)CCC3 (single isomer, unassigned) [Example 146]",2600
8,"COC1COc2c(S(N)(=O)=NC(=O)Nc3c4c(cc5c3C(C)CC5)CCC4)cnn2C1 (single isomer, unassigned) [Example 147]",> 20000
9,"COC1COc2c(S(N)(=O)=NC(=O)Nc3c4c(cc5c3C(C)CC5)CCC4)cnn2C1 (single isomer, unassigned) [Example 148]",710
10,"COC1CN([C@@H]2COc3c([S@@](=O)(=NC(=O)Nc4c5c(c(F)c6c4CCC6)CCC5)NC#N)cnn3C2)C1 (stereo in doubt) [Example 63, (R,6S)—N-cyano-N′-((8-fluoro-1,2,3,5,6,7-hexahydro-s-indacen-4-yl)carbamoyl)-6-(3-methoxyazetidin-1-yl)-6,7-dihydro-5H-pyrazolo[5,1-b][1,3]oxazine-3-sulfonimidamide, ammonia]",140
11,"CN(C)[C@@H]1COc2c([S@@](=O)(=NC(=O)Nc3c4c(c(F)c5c3CCC5)CCC4)NC#N)cnn2C1 [Example 104, (R,6S)—N-cyano-6-(dimethylamino)-N′-((8-fluoro-1,2,3,5,6,7-hexahydro-s-indacen-4-yl)carbamoyl)-6,7-dihydro-5H-pyrazolo[5,1-b][1,3]oxazine-3-sulfonimidamide]",320
